Experimental data taken from ChEMBL document CHEMBL1137408, “Acylguanidines as small-molecule beta-secretase inhibitors” (J Med Chem, 2006).
pEC50, pIC50: −log10 of the molar value.

Experiments:
Homo sapiens = species: Homo sapiens; assay: Selectivity for BACE1 over Cathepsin D
CHO = assay: Decrease in beta amyloid protein level in CHO cells expressing human APP by ELISA; type: functional; conditions: Cricetulus griseus, read-out: ED50 (the source's name)
Pepsin A = Pepsin A (Homo sapiens, UniProt P0DJD9); assay: Inhibition of pepsin by FRET based peptide cleavage assay
H4 [1] = assay: Decrease in beta CTF level in wild type H4 cells by RICA; type: functional, cell-based; conditions: Homo sapiens
H4 [2] = assay: Decrease in beta amyloid protein level in wild type H4 cells by RICA; type: functional, cell-based; conditions: Homo sapiens
Cathepsin D = Cathepsin D (Homo sapiens, UniProt P07339); assay: Inhibition of cathepsin D by FRET based peptide cleavage assay
Beta-secretase 1 = Beta-secretase 1 (Homo sapiens, UniProt P56817); assay: Inhibition of human recombinant BACE1 by FRET based peptide cleavage assay
Beta-secretase 2 = target: T1, Beta-secretase 2 (Homo sapiens, UniProt Q9Y5Z0); assay: Inhibition of BACE2 by FRET based peptide cleavage assay
T1 sequence (Q9Y5Z0 whole entry): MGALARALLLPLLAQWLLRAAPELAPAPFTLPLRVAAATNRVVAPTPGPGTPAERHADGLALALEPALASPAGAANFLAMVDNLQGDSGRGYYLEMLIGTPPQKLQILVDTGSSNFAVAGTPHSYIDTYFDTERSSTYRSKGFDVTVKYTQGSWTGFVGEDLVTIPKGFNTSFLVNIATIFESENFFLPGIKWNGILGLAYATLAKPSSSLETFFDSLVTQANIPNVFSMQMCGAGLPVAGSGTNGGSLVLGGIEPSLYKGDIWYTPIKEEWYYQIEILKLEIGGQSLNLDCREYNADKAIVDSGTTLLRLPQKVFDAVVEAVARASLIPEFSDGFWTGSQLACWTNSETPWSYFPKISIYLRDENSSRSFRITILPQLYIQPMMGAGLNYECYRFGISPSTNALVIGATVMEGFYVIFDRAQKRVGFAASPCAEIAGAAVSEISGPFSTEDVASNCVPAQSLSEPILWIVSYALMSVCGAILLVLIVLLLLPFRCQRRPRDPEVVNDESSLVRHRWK

Sequence of Cathepsin D (P07339 65-162 limits assumed): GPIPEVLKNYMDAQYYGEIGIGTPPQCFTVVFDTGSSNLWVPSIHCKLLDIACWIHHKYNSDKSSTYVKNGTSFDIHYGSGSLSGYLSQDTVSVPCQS
Sequence of Cathepsin D (P07339 169-412 limits assumed): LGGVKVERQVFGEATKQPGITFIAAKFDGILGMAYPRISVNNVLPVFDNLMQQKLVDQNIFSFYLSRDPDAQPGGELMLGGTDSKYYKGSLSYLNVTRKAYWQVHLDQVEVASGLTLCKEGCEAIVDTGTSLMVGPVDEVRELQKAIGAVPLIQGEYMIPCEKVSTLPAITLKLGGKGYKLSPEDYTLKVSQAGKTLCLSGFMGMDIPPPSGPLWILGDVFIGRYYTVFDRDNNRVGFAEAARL
Sequence of Pepsin A (P0DJD9 whole entry): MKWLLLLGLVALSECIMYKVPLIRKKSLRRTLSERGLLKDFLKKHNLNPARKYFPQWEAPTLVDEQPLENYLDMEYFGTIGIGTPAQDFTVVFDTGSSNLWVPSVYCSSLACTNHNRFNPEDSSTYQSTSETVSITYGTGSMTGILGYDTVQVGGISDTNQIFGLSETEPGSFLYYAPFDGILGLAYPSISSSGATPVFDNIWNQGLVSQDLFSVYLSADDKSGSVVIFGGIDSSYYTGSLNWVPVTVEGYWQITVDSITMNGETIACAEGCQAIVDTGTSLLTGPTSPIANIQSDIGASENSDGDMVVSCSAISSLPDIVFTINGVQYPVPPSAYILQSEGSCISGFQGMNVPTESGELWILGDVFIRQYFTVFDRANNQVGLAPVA
Sequence of Beta-secretase 1 (P56817 whole entry): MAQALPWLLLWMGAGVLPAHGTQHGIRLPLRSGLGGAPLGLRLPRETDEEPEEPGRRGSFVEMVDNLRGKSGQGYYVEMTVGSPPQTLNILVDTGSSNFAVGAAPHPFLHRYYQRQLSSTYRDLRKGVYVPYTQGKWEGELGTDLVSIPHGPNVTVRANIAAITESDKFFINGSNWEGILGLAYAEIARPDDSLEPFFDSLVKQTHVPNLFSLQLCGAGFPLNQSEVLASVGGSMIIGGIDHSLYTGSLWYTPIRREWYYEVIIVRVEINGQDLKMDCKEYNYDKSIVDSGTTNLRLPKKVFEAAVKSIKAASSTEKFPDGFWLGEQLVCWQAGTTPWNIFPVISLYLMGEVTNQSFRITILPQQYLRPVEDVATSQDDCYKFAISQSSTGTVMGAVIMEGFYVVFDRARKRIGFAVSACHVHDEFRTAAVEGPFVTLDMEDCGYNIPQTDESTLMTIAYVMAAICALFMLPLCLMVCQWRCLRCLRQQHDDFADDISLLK

For `CCCOc1ccc(-c2ccc(-c3ccccc3Cl)n2CC(=O)/N=C(/N)NCCCO)cc1`, the Selectivity ratio (Homo sapiens) was greater than 50.

In the case of `CC(=O)c1ccc(Oc2ccc(-c3ccc(-c4ccccc4Cl)n3CC(=O)NC(=N)N)cc2)cc1`, the pEC50 (CHO) was 5.07 and the pIC50 (Pepsin A) was less than 4.30.

`N=C(N)NC(=O)Cn1c(-c2ccccc2)ccc1-c1ccccc1` was tested, and the pIC50 (Pepsin A) was less than 4.30, the Activity (H4 [1]) was “Dose-dependent effect” and the Activity (H4 [2]) was “Dose-dependent effect”.

With `CCCOc1ccc(-c2ccc(-c3ccccc3Cl)n2CC(=O)NC(=N)NCCCO)cc1` the pIC50 (Cathepsin D) was 5.23, the pIC50 (Beta-secretase 1) was 6.96 and the pIC50 (Beta-secretase 2) was 6.47. The pIC50 (Pepsin A) was less than 4.30.

`N/C(=N/C(=O)Cn1c(-c2ccccc2)ccc1C12CC3CC(CC(C3)C1)C2)NCCCO` was tested, and the Selectivity ratio (Homo sapiens) was greater than 50, the pIC50 (Cathepsin D) was 4.71 and the pEC50 (CHO) was 5.74. The pIC50 (Beta-secretase 1) was 6.62, the pIC50 (Beta-secretase 2) was 5.46 and the pIC50 (Pepsin A) was less than 4.30.

`NC(N)=NC(=O)Cn1c(-c2ccccc2)ccc1C12CC3CC(CC(C3)C1)C2` was tested, and the Selectivity ratio (Homo sapiens) was greater than 50, the pIC50 (Cathepsin D) was 4.52 and the pEC50 (CHO) was 5.51. For the same compound, the pIC50 (Beta-secretase 1) was 6.22, the pIC50 (Beta-secretase 2) was 4.89 and the pIC50 (Pepsin A) was less than 4.30.
